Data reported in patent publication US11154519B2, “Inhibitors and their uses” (MEDICAL RESEARCH COUNCIL, priority 2015, dated 2021).
Like-named read-outs stand apart in the source and are kept apart here.

Tests used:
PPP1R15B-PP1 = target: T1, PPP1R15B-PP1 (Homo sapiens, UniProt Q5SWA1); test: SPR steady-state binding to R15B-PP1 holophosphatase
T1 construct: cDNAs encoding amino acids 325-636 of PPP1R15A and 340-698 of PPP1R15B were His-tagged and cloned into pMAL-c5x; made in house; host or cells: R15B: E. coli BL21-Gold (pMAL-c5x); PP1γ: Sf9 insect cells (baculovirus, pDW464)
T1 sequence (Q5SWA1 340-698): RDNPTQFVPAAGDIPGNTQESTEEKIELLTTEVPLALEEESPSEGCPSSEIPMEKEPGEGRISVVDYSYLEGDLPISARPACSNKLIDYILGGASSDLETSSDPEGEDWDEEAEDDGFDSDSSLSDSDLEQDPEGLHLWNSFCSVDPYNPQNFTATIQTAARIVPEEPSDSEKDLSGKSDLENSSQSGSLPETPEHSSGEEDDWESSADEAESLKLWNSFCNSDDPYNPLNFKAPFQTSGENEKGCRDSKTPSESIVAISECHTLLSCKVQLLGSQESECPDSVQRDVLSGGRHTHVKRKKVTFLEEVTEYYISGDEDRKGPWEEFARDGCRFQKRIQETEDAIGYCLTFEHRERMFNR
T1 sequence (P36873 whole entry partner, the tested form may be a part): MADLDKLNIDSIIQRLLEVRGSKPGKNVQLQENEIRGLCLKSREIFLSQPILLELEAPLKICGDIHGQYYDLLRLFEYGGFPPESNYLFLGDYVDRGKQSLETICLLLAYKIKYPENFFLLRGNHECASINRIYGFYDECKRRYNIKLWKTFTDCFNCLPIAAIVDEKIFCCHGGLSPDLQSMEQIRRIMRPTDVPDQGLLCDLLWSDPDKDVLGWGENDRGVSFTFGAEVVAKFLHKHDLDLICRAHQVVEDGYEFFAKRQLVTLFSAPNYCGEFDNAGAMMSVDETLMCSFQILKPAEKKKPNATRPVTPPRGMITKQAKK
Procedure: (§1) PPP1R15A^325-636 and PPP1R15B^340-698 were expressed and purified as follows: the cDNAs encoding amino acids 325-636 of PPP1R15A and 340-698 of PPP1R15B were His-tagged and cloned into pMAL-c5x. Recombinant PPP1R15A/B were expressed in BL21-Gold cells and purified by affinity chromatography on a HisTrap HP column (GE Healthcare), followed by a MBPTrap HP column (GE Healthcare). The proteins were analyzed on BOLT SDS-PAGE 4-12% Bis-Tris gels (Life Technologies) stained with SimplyBlue SafeStain (Life Technologies). cDNA encoding for human PP1γ was cloned into the baculovirus transfer vector pDW464 to add a biotin acceptor peptide (BAP). The vector also encodes for the E. coli biotin holoenzyme synthetase (BirA), so that BAP-tagged proteins can be biotinylated in vivo in Spodoptere frugiperda (Sf9) insect cells (Duffy et al., Anal. Biochem., 262, 122-128, 1998). The Bac-to-Bac baculovirus expression system (Life Technologies) was used to generate the recombinant bacmid DNA and Sf9 insect cells were used to amplify the viral stocks Cultures were harvested by centrifuging at 1,200 g for 15 minutes, cell pellets were resuspended in lysis buffer (50 mM Tris pH 7.4, 150 mM NaCl, 0.2% Triton, 5% Glycerol, 1 PiC tablet (Roche) per 50 ml and 0.2 mM PMSF) and followed by gentle sonication. The protein was first purified on a 5 ml HiTrap Q HP column (GE Healthcare) followed by a HiLoad 16/600 Superdex 200 column (GE Healthcare). The positive fractions confirmed by SDS-PAGE and western blot were pooled, concentrate to ˜1 μM and stored at −80° C.
(§2) A Biacore T200 (GE Healthcare) system was used for all experiments and biotinylated PP1 was captured using a Sensor Chip SA (GE Healthcare, catalog no BR-1005-31). The streptavidin coated surface was activated by 1 min injection with a solution of 50 mM NaOH and 1 M NaCl. Biotin-PP1 was diluted in the running buffer (50 mM Tris pH 7.5, 100 mM NaCl, 0.1 mM EGTA, 1 mM MnCl2, 0.05% Tween 20) and injected at approximately 300 nM concentration directly to streptavidin coated surface for 100 sec or to reach immobilization level of biotin-PP1 corresponding to ˜7000 RU. A blank immobilization was performed for one of the SA sensor chip surface to use as a reference.
(§3) With minor deviations, the same procedure and conditions were used in all binding experiments. Small molecules were stored as 50 mM stock solutions in 100% DMSO. Prior to determining binding constants, serial dilutions of either 12 or 8 concentrations of the compounds were prepared in the running buffer in a 96-well plate. Prior to each compound dilution series the regulatory subunit, R15A or R15B, was diluted to […] in the running buffer and captured on the biotin-PP1 surface, to form the holophosphatase complex on the sensor chip surface. Then, without regenerating the surface, the compound dilution series was injected onto the surface of the chip Sensorgrams were analyzed using the Biacore T200 evaluation software and the binding constants determined based on a steady-state model. Kinetic experiments are carried out using different concentrations of the compound and their respective equilibrium binding levels determined.
(§4) Surface Plasmon Resonance (SPR) was used to measure the binding affinity of compounds to the PPP1R15A/B-PP1 phosphatase complex. Biotin acceptor peptide (BAP) was fused to the N-terminus of PP1γ, which enables the biotinylation of the BAP-tagged protein in Sf9 insect cells. After purification the BAP-PP1γ protein was captured on a streptavidin sensor chip (SA-chip, GE healthcare) to a response level of ˜5.000 RU. Using controlled biotinylation enables orientated and uniform immobilization on the sensor chip surface. The PP1γ was then used to capture PPP1R15A/B and form a holophosphatase complex on the surface of the streptavidin chip. This complex can then be used to test binding of compounds. 10 μM PPP1R15A/B protein concentration was used to form the holophosphatase complex during a 80 s injection. […]

PPP1R15A-PP1 complex = target: T2, PPP1R15A-PP1 complex (Homo sapiens, UniProt O75807); test: SPR steady-state binding to R15A-PP1 holophosphatase
T2 construct: cDNAs encoding amino acids 325-636 of PPP1R15A and 340-698 of PPP1R15B were His-tagged and cloned into pMAL-c5x; made in house; host or cells: R15A: E. coli BL21-Gold (pMAL-c5x); PP1γ: Sf9 insect cells (baculovirus, pDW464)
T2 sequence (O75807 325-636): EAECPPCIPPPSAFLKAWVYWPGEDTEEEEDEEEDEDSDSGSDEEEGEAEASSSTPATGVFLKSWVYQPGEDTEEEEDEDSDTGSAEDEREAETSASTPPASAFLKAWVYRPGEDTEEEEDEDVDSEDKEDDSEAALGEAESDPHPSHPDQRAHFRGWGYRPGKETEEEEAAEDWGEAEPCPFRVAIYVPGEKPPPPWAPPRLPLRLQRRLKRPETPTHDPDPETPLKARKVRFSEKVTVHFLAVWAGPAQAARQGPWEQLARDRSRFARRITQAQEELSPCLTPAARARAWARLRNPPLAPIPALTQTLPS
T2 sequence (P36873 whole entry partner, the tested form may be a part): as the sequence (P36873 whole entry partner, the tested form may be a part) above
Procedure: as §1, §2, §3, §4

HeLa cells = test: Cytoprotection against ER stress (tunicamycin), IncuCyte; type: cell-based; details: Homo sapiens, 250 ng/ml Tunicamycin, 72 hours, compound 0-20 μM, read-out: Cytoprotection from Tm (compared to GNB)
Procedure: HeLa cells (40,000 cells/ml) were plated in a 96-well plate and treated with different concentrations (0-20 μM) of a compound as indicated in the presence of 250 ng/ml Tunicamycin for 72 hours. To monitor cell death 1/2000 dilution of the CellTox green dye (Promega) was added to the media. The growth of the cells was monitored over time and pictures taken every 2 hours with the IncuCyte ZOOM system and analysed by the IncuCyte ZOOM software (Essen BioScience). […] Cytoprotection against ER stress can be measured by a suitable assay. In this instance, cytoprotection was measured in HeLa cells in which ER stress was elicited by the addition of media containing tunicamycin, a drug that blocks N-glycosylation, thereby preventing protein folding and inducing the unfolded protein response. Cell viability was then detected in the presence and absence of a compound listed in Table 1 after a set period of time, by monitoring cell growth over time. Cytoprotection from ER stress was measured in terms of the percentage increase in viable cells (relative to control) after ER stress.

protein synthesis = test: Assessment of translation rates (35S-methionine labelling); type: cell-based; details: for Effect on translation: 35S-methionine labelling of cells; for Effect on translation ⇒ Inhibits: target(s) concluded to be inhibited; for protein synthesis rates: unstressed cells, 10 μM, FIG. 12
Procedure: Cells (90,000 cells/ml) were plated in 12-well plates, treated as indicated, labelled with 100 μCi/mI 35S-methionine (Hartmann Analytic) for 10 minutes at 37° C., washed with ice-cold PBS and lysed in 120 μl Laemmli Buffer. Lysates were boiled at 95° C. for 5 minutes, sonicated and resolved on 4-12% Bolt Bis-Tris Plus Gels (Thermo Fisher Scientific). Gels were then stained with InstantBlue (Expedeon) and analyzed by phosphorimaging and quantified using ImageJ.
By monitoring translation rates as described above, the activities of R15A, R15B and R15A/B inhibitors can be defined as follows (also shown in FIG. 12). An R15A inhibitor has no effect on translation in unstressed cells but prolongs translation attenuation following stress. A selective R15B inhibitor transiently attenuate protein synthesis because R15A compensates for the inhibition of R15B.

[1] = SPR steady-state, MBP-R15B340-698-His captured on bio-PP1c, 10° C., read-out: R15B (KD)
[2] = SPR steady-state, MBP-R15A325-636-His captured on bio-PP1c, 10° C., read-out: R15A (KD)

Structure (SMILES) | Kd (PPP1R15B-PP1; [1]) | Kd (PPP1R15A-PP1 complex; [2]) | Emax (HeLa cells) | Effect on translation (protein synthesis) | Effect on translation ⇒ Inhibits (protein synthesis) | protein synthesis rates (protein synthesis) | Kd (PPP1R15B-PP1; SPR, FIG. 1, read-out: KD for PPP1R15B-PP1) | Kd (PPP1R15A-PP1 complex; SPR, FIG. 1, read-out: KD for PPP1R15A-PP1)
[H]/N=C(\N)NN=Cc1ccc(Cl)cc1 [Compound 1, (E)-2-((4-chlorophenyl)methylene)hydrazine-1-carboximidamide] | 7.33 ± 1.79 µM | 8.32 ± 0.14 µM | 0% | – | – | – | – | –
N=C(N)N/N=C/c1cc(Cl)c(Cl)c(Cl)c1 [Compound 3, (E)-2-(3,4,5-trichlorobenzylidene)hydrazine-1-carboximidamide] | 0.149 µM | 4.49 ± 1.47 µM | 52% | Persistent | – | – | – | –
[H]/N=C(\N)NN=Cc1cc(Cl)c(F)c(Cl)c1 [Compound 5, (E)-2-(3,5-dichloro-4-fluorobenzylidene)hydrazine-1-carboximidamide] | 2.67 ± 0.4 µM | 8.45 ± 0.41 µM | 48% | – | – | – | – | –
[H]/N=C(\N)NN=Cc1ccc(Cl)c(Cl)c1Cl [Compound 6, (E)-2-(2,3,4-trichlorobenzylidene)hydrazine-1-carboximidamide] | 9.09 ± 1.37 µM | 5.43 ± 1.1 µM | 61% | Persistent | – | – | – | –
[H]/N=C(\N)NN=Cc1cc(F)c(Cl)cc1Cl [Compound 7, (E)-2-(2,4-dichloro-5-fluorobenzylidene)hydrazine-1-carboximidamide] | 4.34 ± 2.35 µM | 10.2 ± 2.57 µM | 46% | – | R15AB | – | – | –
[H]/N=C(\N)NN=Cc1ccc(Cl)c(F)c1 [Compound 8, (E)-2-(4-chloro-3-fluorobenzylidene)hydrazine-1-carboximidamide] | 11.3 µM | 6.37 ± 1.03 µM | 0% | – | R15AB | – | – | –
[H]/N=C(\N)NN=Cc1cccc(Cl)c1Br [Compound 9, (E)-2-(2-bromo-3-chlorobenzylidene)hydrazine-1-carboximidamide] | 39.6 ± 5.9 µM | 13.6 ± 0.8 µM | 67% | – | Off | – | – | –
[H]/N=C(\N)NN=Cc1cc(Cl)cc(Cl)c1Cl [Compound 10, (E)-2-(2,3,5-trichlorobenzylidene)hydrazine-1-carboximidamide] | 0.44 ± 0.09 µM | 0.391 ± 0.14 µM | 85% | Persistent | – | persistently inhibits protein synthesis | – | –
[H]/N=C(\N)NN=Cc1ccc(Cl)c(Cl)c1 [Compound 11, (E)-2-(3,4-dichlorobenzylidene)hydrazine-1-carboximidamide] | 13.4 ± 0.47 µM | 16.2 ± 2.1 µM | 34% | – | R15AB | – | – | –
[H]/N=C(\N)NN=Cc1ccc(Cl)c(F)c1Cl [Compound 13, (E)-2-(2,4-dichloro-3-fluorobenzylidene)hydrazine-1-carboximidamide] | 6.68 ± 2.34 µM | 4.62 ± 0.59 µM | 73% | Persistent | R15AB | – | – | –
[H]/N=C(\N)NN=Cc1ccc(F)c(Cl)c1Cl [Compound 14, (E)-2-(2,3-dichloro-4-fluorobenzylidene)hydrazine-1-carboximidamide] | 5.43 ± 1.26 µM | 5.45 ± 1.48 µM | 100% | Persistent | – | – | – | –
[H]/N=C(\N)NN=Cc1ccc(F)c(Cl)c1 [Compound 15, (E)-2-(3-chloro-4-fluorobenzylidene)hydrazine-1-carboximidamide] | 7.68 ± 2.18 µM | 11.2 µM | 46% | – | – | – | – | –
[H]/N=C(\N)NN=Cc1cccc(Cl)c1Cl [Compound 16, (E)-2-(2,3-dichlorobenzylidene)hydrazine-1-carboximidamide] | – | 1.05 ± 0.013 µM | 92% | Transient | – | transiently inhibits protein synthesis in unstressed cells | 0.035 µM | 1 µM
N=C(N)N/N=C/c1cc(Cl)c(Cl)cc1F [Compound 18, (E)-2-(4,5-dichloro-2-fluorobenzylidene)hydrazine-1-carboximidamide] | 4.85 ± 0.14 µM | 10.2 ± 1.62 µM | 54% | – | – | – | – | –
